Earlier results as cited in article PMC9963398, “Discovery of New Quinolone-Based Diarylamides as Potent B-RAF^V600E/C-RAF Kinase Inhibitors Endowed with Promising In Vitro Anticancer Activity” (International Journal of Molecular Sciences, 2023).

Tests used:
SNB-19 = tested on: SNB-19; design: method as in PMID 32745753; conditions: SNB-19, CNS cancer; cited from earlier work
UACC-62 = tested on: UACC-62; design: method as in PMID 32745753; conditions: UACC-62, Melanoma; cited from earlier work
HCT-116 = tested on: HCT-116; design: method as in PMID 32745753; conditions: HCT-116, Colon cancer; cited from earlier work
NCI-H322M = tested on: NCI-H322M; design: method as in PMID 32745753; conditions: NSCL cancer; cited from earlier work
HOP-92 = tested on: HOP-92; design: method as in PMID 32745753; conditions: HOP-92, NSCL cancer; cited from earlier work
MDA-MB-435 = tested on: MDA-MB-435; design: method as in PMID 32745753; conditions: MDA-MB-435, Melanoma; cited from earlier work
SF-268 = tested on: SF-268; design: method as in PMID 32745753; conditions: SF-268, CNS cancer; cited from earlier work
SNB-75 = tested on: SNB-75; design: method as in PMID 32745753; conditions: SNB-75, CNS cancer; cited from earlier work
COLO 205 = tested on: COLO 205; design: method as in PMID 32745753; conditions: COLO 205, Colon cancer; cited from earlier work
DU-145 = tested on: DU-145; design: method as in PMID 32745753; conditions: DU-145, Prostate cancer; cited from earlier work
M14 = tested on: M14; design: method as in PMID 32745753; conditions: M14, Melanoma; cited from earlier work
RXF 393 = tested on: RXF 393; design: method as in PMID 32745753; conditions: RXF 393, Renal cancer; cited from earlier work
NCI-H226 = tested on: NCI-H226; design: method as in PMID 32745753; conditions: NCI-H226, NSCL cancer; cited from earlier work
OVCAR-3 = tested on: OVCAR-3; design: method as in PMID 32745753; conditions: OVCAR-3, Ovarian cancer; cited from earlier work
IGROV1 = tested on: IGROV1; design: method as in PMID 32745753; conditions: IGROV1, Ovarian cancer; cited from earlier work
TK-10 = tested on: TK-10; design: method as in PMID 32745753; conditions: TK-10, Renal cancer; cited from earlier work
PC-3 = conditions: PC-3, Prostate cancer; cited from earlier work
ACHN = tested on: ACHN; design: method as in PMID 32745753; conditions: Renal cancer; cited from earlier work
NCI/ADR-RES = tested on: NCI/ADR-RES; design: method as in PMID 32745753; conditions: Ovarian cancer; cited from earlier work
MALME-3M = tested on: MALME-3M; design: method as in PMID 32745753; conditions: Melanoma; cited from earlier work
HS 578T = tested on: HS 578T; design: method as in PMID 32745753; conditions: Breast cancer; cited from earlier work
MDA-MB-231/ATCC = conditions: Breast cancer; cited from earlier work
SF-539 = tested on: SF-539; design: method as in PMID 32745753; conditions: SF-539, CNS cancer; cited from earlier work
NCI-H23 = tested on: NCI-H23; design: method as in PMID 32745753; conditions: NCI-H23, NSCL cancer; cited from earlier work
T-47D = tested on: T-47D; design: method as in PMID 32745753; conditions: Breast cancer; cited from earlier work
NCI-H460 = tested on: NCI-H460; design: method as in PMID 32745753; conditions: NCI-H460, NSCL cancer; cited from earlier work
SF-295 = tested on: SF-295; design: method as in PMID 32745753; conditions: SF-295, CNS cancer; cited from earlier work
SK-MEL-2 = tested on: SK-MEL-2; design: method as in PMID 32745753; conditions: SK-MEL-2, Melanoma; cited from earlier work
OVCAR-8 = tested on: OVCAR-8; design: method as in PMID 32745753; conditions: OVCAR-8, Ovarian cancer; cited from earlier work
CCRF-CEM = tested on: CCRF-CEM; design: method as in PMID 32745753; conditions: Leukemia; cited from earlier work
SR = tested on: SR; design: method as in PMID 32745753; conditions: Leukemia; cited from earlier work
HT29 = tested on: HT29; design: method as in PMID 32745753; conditions: HT29, Colon cancer; cited from earlier work
HOP-62 = tested on: HOP-62; design: method as in PMID 32745753; conditions: HOP-62, NSCL cancer; cited from earlier work
U251 = tested on: U251; design: method as in PMID 32745753; conditions: U251, CNS cancer; cited from earlier work
EKVX = tested on: EKVX; design: method as in PMID 32745753; conditions: NSCL cancer; cited from earlier work
HCC-2998 = tested on: HCC-2998; design: method as in PMID 32745753; conditions: HCC-2998, Colon cancer; cited from earlier work
OVCAR-5 = tested on: OVCAR-5; design: method as in PMID 32745753; conditions: OVCAR-5, Ovarian cancer; cited from earlier work

For `CNC(=O)c1cc(Oc2ccc(NC(=O)Nc3ccc(Cl)c(C(F)(F)F)c3)cc2)ccn1` [Sorafenib], the GI50 (SNB-19) is given as 3400 nM, the GI50 (UACC-62) is given as 1700 nM and the GI50 (HCT-116) is given as 1700 nM. For the same compound, the GI50 (NCI-H322M) was 2800 nM, the GI50 (HOP-92) was 1600 nM and the GI50 (MDA-MB-435) was 1800 nM. For the same compound, the GI50 (SF-268) was 2500 nM, the GI50 (SNB-75) was 3000 nM and the GI50 (COLO 205) was 2200 nM. The GI50 (DU-145) was 3300 nM, the GI50 (M14) was 2200 nM and the GI50 (RXF 393) was 3400 nM. For the same compound, the GI50 (NCI-H226) was 1900 nM, the GI50 (OVCAR-3) was 2900 nM and the GI50 (IGROV1) was 2600 nM. The GI50 (TK-10) was 4400 nM, the GI50 (PC-3) was 2000 nM and the GI50 (ACHN) was 2800 nM. The GI50 (NCI/ADR-RES) was 2500 nM, the GI50 (MALME-3M) was 2200 nM and the GI50 (HS 578T) was 2600 nM. The GI50 (MDA-MB-231/ATCC) was 1300 nM, the GI50 (SF-539) was 1600 nM and the GI50 (NCI-H23) was 1800 nM. The GI50 (T-47D) was 1800 nM, the GI50 (NCI-H460) was 2300 nM and the GI50 (SF-295) was 1600 nM. The GI50 (SK-MEL-2) was 1800 nM, the GI50 (OVCAR-8) was 3000 nM and the GI50 (CCRF-CEM) was 2200 nM. The GI50 (SR) was 3100 nM, the GI50 (HT29) was 2200 nM and the GI50 (HOP-62) was 1900 nM. The GI50 (U251) was 2100 nM, the GI50 (EKVX) was 2500 nM and the GI50 (HCC-2998) was 3000 nM. The GI50 (OVCAR-5) was 2900 nM.
